From patent US9056923B2, “Mimetic peptides derived from collagen type IV and their use for treating angiogenesis- and lymphagiogenesis-dependent diseases” (THE JOHNS HOPKINS UNIVERSITY, priority 2010, dated 2015)
Ends that are not written are not given here.

Key:
Format in all cases: cell-based, human
HUVEC [1] = conditions: HUVEC; for Activity in Proliferation: Yes/No summary
Procedure: Several assays were used to test the peptides discussed in the Examples herein. A colorimetric based proliferation assay using WST-1 (Roche, 11644807001) proliferation reagent was carried out using HUVEC cells. 2000 cells/well were plated in 96-well plates and allowed to adhere overnight. On the following day, the media was exchanged with fully supplemented media containing peptides or equivalent DMSO vehicle for the controls. Three days later the media containing the peptides was replaced with serum-free EBM-2 media containing WST-1 reagent and the plates were incubated for four hours as per the manufacturer's recommendations. Changes in color, due to the formazan dye resulted from the cleavage of the tetrazolium salt WST-1 by the mitochondrial succinate-tetrazolium reductase, were read on a Victor V fluorescence plate reader (Perkin Elmer, MA) by measuring the absorbance at 450 nm Dose response curves of percent live cells (in comparison to untreated cells but incubated in complete media with 0.2% DMSO) were created. Assays were performed in at least two independent replicates and each replicate was performed using three experimental triplicates.

HUVEC [2] = experiment: HUVEC migration assay (RT-CIM); conditions: for Migration Inhibition (5 uM): 5 uM peptide; for Activity in Migration: Yes/No summary, active = inhibitory potential greater than 30%; for Migration Inhibition (50 uM): 50 uM peptide
Procedure: The inhibitory potential of the peptides was measured using a real time migration assay system based on electrical impedance (RT-CIM, ACEA Biosciences, CA). CIM 16 well plates (Roche, 05665817001) are composed of a top and bottom chamber separated by a microporous (8 μm) polycarbonate membrane. The membrane was coated with fibronectin (20 μg/mL), and 45,000 cells/well in serum free media with or without peptides were added to the top compartment. Media with chemoattractant (i.e., fully supplemented EBM-2) was added to the bottom compartment of the chamber and the plate was incubated at 37° C. for 20 hours. The sensors integrated on the bottom side of the membrane monitor and continuously record changes in impedance as the cells move through the membrane. The RT-CIM technology allows for easy quantification of cell migration by monitoring the cell index derived from the measured impedances. Assays were performed in at least two independent replicates and each replicate was performed using two experimental duplicates.

HUVEC [3] = conditions: HUVEC; for Adhesion Inhibition (100 uM): 100 uM peptide; for Activity in Adhesion: Yes/No summary, active = inhibitory potential greater than 30%
Procedure: Similar to the migration assays, the inhibition activity of the peptide in cellular adhesion was assessed using the RT-CIM technology. In this case, 25,000 cells/well were plated in 16 wells E-plates (Roche, Basel Switzerland) in the presence or absence of the peptide. The adhesion was monitored over time (3 hours) by measuring changes in the electrical impedance, which is a direct measure of the cells adhering on the electrodes. […] Assays were performed in at least two independent replicates and each replicate was performed using two experimental duplicates.

HUVEC [4] = experiment: HUVEC tube formation assay on Matrigel; conditions: for Tube formation Inhibition (100 uM): 100 uM peptide; for Activity in Tube formation: Yes/No summary; for inhibition of tube formation: concentration not given
Procedure: The compounds also were tested for their ability to inhibit tube formation, a process critical in angiogenesis. Endothelial cells spontaneously form a network of tubes when plated on extracts of extracellular matrix. This in vitro assay combines aspects of adhesion and migration and it is routinely used in angiogenesis research (Oliveira-Ferrer et al., 2008). The ability to inhibit tube formation is a comprehensive assessment of the anti-angiogenic potential. The protocol was described by Arnaoutova et al. (2009) and it consists of plating HUVEC on top of basement membrane extract and after incubation at 37° C. the cells naturally rearrange themselves in a network of tubes. Thus, 50 μL/well of Matrigel (BD Biosciences, San Jose, Calif.) was plated in a cold 96 well plate and incubated at 37° C. for 30 min for polymerization. 15,000 cells/well were added to the top of the gel and incubated in complete media in the presence or absence of peptide for 19 hours. Images were captured using the CCD Sensicam mounted on a Nikon microscope (Eclipse T-100). Assays were performed in at least two independent replicates and each replicate was performed using three experimental replicates and one image of a randomly chosen field was acquired per well.

Substance	Activity in Proliferation (HUVEC [1])	Migration Inhibition (5 uM) (HUVEC [2]) [%]	Activity in Migration (HUVEC [2])	Adhesion Inhibition (100 uM) (HUVEC [3]) [%]	Activity in Adhesion (HUVEC [3])	Tube formation Inhibition (100 uM) (HUVEC [4])	Activity in Tube formation (HUVEC [4])	inhibition of proliferation (HUVEC [1])	Migration Inhibition (50 uM) (HUVEC [2]) [%]	inhibition of tube formation (HUVEC [4])
LRRFSTMPFMFANINNVANF-NH2 [SP2023]	Yes	31.18	Yes	96.29	Yes	Complete	Yes	–	–	–
LRRFSTMPFMFININN-NH2 [SP2033, LRRFSTMPFMFININN]	Yes	–	Yes	94	Yes	Complete	Yes	potent activity in inhibiting proliferation	42.01	Inhibition of tube formation
LRRFSTMPFMFSNINNVSNF-NH2 [SP2022]	Yes	–	Yes	96.49	Yes	–	Yes	not affected	–	–
LRRFSTMPFMFTNINN-NH2 [SP2032, LRRFSTMPFMFTNINN]	Yes	–	Yes	63	Yes	Complete	Yes	potent activity in inhibiting proliferation	32.45	Inhibition of tube formation
LRRFSTMPFMFTNINNVTNF-NH2 [SP2025]	Yes	18.19	Yes	96.48	Yes	Complete	Yes	not affected	–	–
LRRFSTMPFMFTNINV-NH2 [SP2029, LRRFSTMPFMFTNINV]	Yes	–	Yes	93.75	Yes	Complete	Yes	potent activity in inhibiting proliferation	54.13	Inhibition of tube formation
LRRFSTMPFMFVNINNVVNF-NH2 [SP2027]	Yes	27.02	Yes	96.75	Yes	Complete	Yes	not affected	–	–
